Experimental data from patent US11985974B2, “Antimicrobial ferulic acid derivatives and uses thereof” (WISCONSIN ALUMNI RESEARCH FOUNDATION, priority 2014, dated 2024).

System: yeast
Test: not given
Conditions: against yeast, literature values; cited from earlier work

Row | Structure (SMILES) | IC50
1 | O=C1C2CC=CCC2C(=O)N1SC(Cl)(Cl)Cl (stereo not drawn) [captan] | 19 µM
2 | O=S(=O)([O-])[O-].[Cu+2] [copper sulfate] | 2400 µM
3 | CO/C=C(/C(=O)OC)c1ccccc1COc1cccc(C(F)(F)F)n1 [picoxystrobin] | 308 µM
4 | NC(=O)OC[C@H](O)[C@@H](O)[C@H](N)C(=O)N[C@H](C(=O)O)[C@H]1O[C@@H](n2cc(C(=O)O)c(=O)[nH]c2=O)[C@H](O)[C@@H]1O [polyoxin D] | 340 µM
5 | CCCN(CCOc1c(Cl)cc(Cl)cc1Cl)C(=O)n1ccnc1 [prochloraz] | 132 µM
6 | c1ccc2[nH]c(-c3cscn3)nc2c1 [thiabendazole] | 607 µM

System: yeast cells
Test: Cell leakage assay (FungaLight, flow cytometry)
Assay type: cell-based, Saccharomyces cerevisiae
Conditions: actively growing cells (YPD), 4 h
Procedure: A FungaLight Cell Viability Assay (L34952; Invitrogen) using a Guava Flow Cytometer (Millipore) was used to determine if poacic acid caused membrane damage. The population of stained cells (damaged integrity) vs. nonstained cells can be determined by flow cytometry. Caspofungin (50 ng/mL) was included as a positive control. MMS and DMSO were included as a noncell wall-targeting control and a solvent control, respectively. To test the effects of the compounds on both active and arrested cells, log-phase cultures were washed with 1×PBS and resuspended to an OD0.5 in either YPD medium or YP (no carbon source) in the presence of the drugs (n=3) for 4 h at 30° C. The cells were then stained and immediately read by flow cytometry. One-way ANOVA and Tukey's test were used to calculate the difference between drug treatments among cells with arrested growth.

Row | Structure (SMILES) | cell leakage (propidium iodide uptake)
7 | COS(C)(=O)=O [MMS, methyl methanesulfonate] | did not
8 | CC[C@H](C)C[C@H](C)CCCCCCCCC(=O)N[C@H]1C[C@@H](O)[C@@H](NCCN)NC(=O)[C@@H]2[C@@H](O)CCN2C(=O)[C@H]([C@H](O)CCN)NC(=O)[C@H]([C@H](O)[C@@H](O)c2ccc(O)cc2)NC(=O)[C@@H]2C[C@@H](O)CN2C(=O)[C@H]([C@@H](C)O)NC1=O [caspofungin] | caused rapid cell leakage

Same assay, conditions: arrested cells without carbon source (YP), 4 h

Row | Structure (SMILES) | cell leakage (propidium iodide uptake)
9 | CC[C@H](C)C[C@H](C)CCCCCCCCC(=O)N[C@H]1C[C@@H](O)[C@@H](NCCN)NC(=O)[C@@H]2[C@@H](O)CCN2C(=O)[C@H]([C@H](O)CCN)NC(=O)[C@H]([C@H](O)[C@@H](O)c2ccc(O)cc2)NC(=O)[C@@H]2C[C@@H](O)CN2C(=O)[C@H]([C@@H](C)O)NC1=O [caspofungin] | diminished
